Laboratory results taken from patent US20260035364A1, “BICYCLIC TETRAHYDROTHIAZEPINE DERIVATIVES” (Hoffmann-La Roche Inc., priority 2022, published 2026).

Tests used:
DGKzeta = DGKzeta (Homo sapiens, UniProt Q13574); assay: In vitro DGK inhibition assay (ADP-Glo, liposomes), DGKzeta; assay type: biochemical; set-up: hDGKzeta(1-928)-N-His; His (N); made in house; host or cells: Sf21 insect cells (baculovirus); conditions: 2 nM DGK ζ, 50 μM ATP, 125 uM DLG in liposomes, 1 hour reaction
Protocol: (§1) DGK α and ζ kinases use ATP to phosphorylate the substrate 1,2-dilauroyl-sn-glycerol (DLG, incorporated in the liposomes). ATP is converted to ADP as a result of this enzymatic reaction. After the kinase reaction, an ATP-depletion reagent is added to terminate the kinase reaction and deplete any remaining ATP, leaving only ADP. Second, a detection reagent is added to simultaneously convert ADP to ATP and allow the newly synthesized ATP to be converted to light using a coupled luciferase/luciferin reaction.
(§2) Purification of both enzymes was performed as previously described by Takahashi et al., PeerJ, 2018 (Takahashi, D.; Sakane, F. Expression and purification of human diacylglycerol kinase alpha from baculovirus-infected insect cells for structural studies. PeerJ 2018, 6, No. e5449).
(§3) A concentrated liposome solution was prepared in assay buffer without DTT and BSA: 2 mM of DLG in 21 mM of total liposome (2 mM DLG/8 mM PS/11 mM PC). The reaction mixtures contain the assay buffer with a final DLG concentration of 125 uM ATP concentrations of 25 μM (for DGKA assay) or 50 μM (for DGKZ assay). The reactions were started by addition of DGK a and (kinases at 4 nM and 2 nM final concentrations, respectively. After 1 hour reaction, the amount of ADP formed was detected with the ADP-Glo kinase assay (Promega) according to the manufacturer instructions. Compounds were added in 11-points dose response, starting at […], 1:3 dilutions, with a final DMSO concentration of 2%. The multidrop combi was used as a liquid handler and luminescence was read with 0.5 s by the envision reader (PE).

primary human T-cells = assay: T-cell proliferation assay (CellTiter-Glo); assay type: cell-based; conditions: Homo sapiens, T-cell, 120 h, CD3 condition; for Emax: 5 days, 20 μM reference compound A1 = 100%, read-out: Emax proliferation (% activation); for EC50: proliferation after 5 days, CellTiter-Glo, read-out: Tcell Proliferation CD3 EC50
Protocol: Expanded primary human T-cells are thawed and cultured in RPMI 1640 (Gibco, #61870-010)+5% human serum (HS, Sigma, #H3667)+1 mM Sodium Pyruvate (Gibco, #11360-039)+50 μM 2-mercaptoethanol (Gibco, #31350-010) and 1× Pen-Strep (Life Technologies, #15140122) medium at density of 2 Mio/ml for 3 hours in 5% CO2, 37° C. and 95% humidity. For coating of plates, PBS++ only or PBS++ with CD3 antibody (concentration depending on donor and determined by CD3 titrations) is added 100 μl/well to Poly-D Lysine coated 96-well plates. Plates are sealed and incubated at room temperature for 3 hours on a table-top rocking platform. After incubation, plates are washed once with PBS−− and filled with 40 μl/well culture medium only. Compounds are then added (see next section) to medium only plates. After 3 hours of culturing the T-cells, cells are filtered through a cell strainer (Miltenyi Biotech, #130-041-407), counted again and concentration is adjusted to 1.25 Mio/ml.
Cells are then seeded 80 μl/well to the 40 µl/well including dispensed compounds according to plate layout. By adding cells, compounds are further diluted 1:3, and resulting in 100k cells/120 µl/well. After 48 hours 40 μl of supernatant is collected carefully from the top while not disturbing the cells. Cells are assessed for proliferation 5 days later by measuring […] using CellTiterGlo (Promega).
Compounds were added in a 5 or 6 pt dose response with the Tecan D300e Digital Dispenser, all conditions 3 times more concentrated than the end-concentration, since cells are added afterwards (80p1 cells to 40p1 prepared medium with treatment). The DR was starting at 20 μM or 10 μM final top concentration and a dilution factor of 3.333. The positive control was the reference compound A1 that was added in a dose response as well, additionally to 3 wells of only 20 μM representing the positive stimulator control. All wells were normalized with DMSO to a final concentration of 0.6% (0.2% end-concentration).
After 5 days, for detection of ATP which is directly proportional to the number of cells present per well, the CellTiter-Glo® 2.0 Reagent is used. After visual control for toxicity or precipitations of the tested compounds, the plates are equilibrated to room temperature for 45 minutes. CellTiter-Glo® 2.0 Reagent is equilibrated to room temperature as well. After equilibration, an equal amount of CellTiter-Glo reagent is added to the cells (80 µl/well) with an electronic multichannel pipette. Plates are placed on a rocking platform for 15 minutes at room temperature. After incubation, the bottom of the plates is sealed with backing tape. Luminescence is measured with PHERAstar FSX (interval time 0.5 sec, gain 3000, focal height 15 mm) and exported as CSV file for analysis in Genedata screener.
Calculations and Data Reporting CD3 and PBS plates were analysed separately in Genedata Screener using Roche Normalization PCT_POS_CTRL with DMSO set as Neutral Control and 20 μM of the reference compound A1 set as Stimulator Control/100%.
For CD3 conditions EC50 and Emax of the fitted sigmoidal curve were reported. If no curve could be fitted, the EC50 was reported as blank field and the Emax was based on individual data points. […] Compounds which activate unstimulated cells (see IL2 measurements) or compounds which negatively affected viability were flagged.

DGKalpha = DGKalpha (Homo sapiens, UniProt P23743); assay: In vitro DGK inhibition assay (ADP-Glo, liposomes), DGKalpha; assay type: biochemical; set-up: hDGKalpha(1-735)-N-His; His (N); made in house; host or cells: Sf21 insect cells (baculovirus); conditions: 4 nM DGK α, 25 μM ATP, 125 uM DLG in liposomes, 1 hour reaction
Protocol: as §1
as §2, with “Full length DGKA and Z were expressed in Sf21 insect cells by infecting the cells with the baculovirus stock at MOI of 2. Purification” for “Purification”
as §3

DGKalpha, sequence (P23743 whole entry): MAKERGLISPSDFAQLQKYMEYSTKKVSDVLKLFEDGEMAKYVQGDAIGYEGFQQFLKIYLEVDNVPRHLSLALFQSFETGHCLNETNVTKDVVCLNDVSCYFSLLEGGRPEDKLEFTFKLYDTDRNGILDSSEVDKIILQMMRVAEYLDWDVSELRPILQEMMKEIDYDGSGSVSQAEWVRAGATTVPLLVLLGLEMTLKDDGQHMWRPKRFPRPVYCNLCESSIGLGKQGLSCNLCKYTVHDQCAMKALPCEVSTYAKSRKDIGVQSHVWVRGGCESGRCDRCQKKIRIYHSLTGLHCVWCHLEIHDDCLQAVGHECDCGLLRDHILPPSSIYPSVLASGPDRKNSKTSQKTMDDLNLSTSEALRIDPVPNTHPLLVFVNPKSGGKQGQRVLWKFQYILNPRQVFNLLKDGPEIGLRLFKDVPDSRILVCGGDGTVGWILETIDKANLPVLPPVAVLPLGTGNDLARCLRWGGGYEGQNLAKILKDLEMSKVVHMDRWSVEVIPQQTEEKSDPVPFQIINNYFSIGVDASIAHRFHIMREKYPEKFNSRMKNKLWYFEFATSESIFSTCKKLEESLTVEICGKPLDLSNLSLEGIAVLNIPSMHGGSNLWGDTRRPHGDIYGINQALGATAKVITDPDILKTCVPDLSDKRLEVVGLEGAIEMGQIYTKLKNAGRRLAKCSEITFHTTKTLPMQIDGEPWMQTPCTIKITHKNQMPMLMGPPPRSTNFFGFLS
DGKzeta, sequence (Q13574 whole entry): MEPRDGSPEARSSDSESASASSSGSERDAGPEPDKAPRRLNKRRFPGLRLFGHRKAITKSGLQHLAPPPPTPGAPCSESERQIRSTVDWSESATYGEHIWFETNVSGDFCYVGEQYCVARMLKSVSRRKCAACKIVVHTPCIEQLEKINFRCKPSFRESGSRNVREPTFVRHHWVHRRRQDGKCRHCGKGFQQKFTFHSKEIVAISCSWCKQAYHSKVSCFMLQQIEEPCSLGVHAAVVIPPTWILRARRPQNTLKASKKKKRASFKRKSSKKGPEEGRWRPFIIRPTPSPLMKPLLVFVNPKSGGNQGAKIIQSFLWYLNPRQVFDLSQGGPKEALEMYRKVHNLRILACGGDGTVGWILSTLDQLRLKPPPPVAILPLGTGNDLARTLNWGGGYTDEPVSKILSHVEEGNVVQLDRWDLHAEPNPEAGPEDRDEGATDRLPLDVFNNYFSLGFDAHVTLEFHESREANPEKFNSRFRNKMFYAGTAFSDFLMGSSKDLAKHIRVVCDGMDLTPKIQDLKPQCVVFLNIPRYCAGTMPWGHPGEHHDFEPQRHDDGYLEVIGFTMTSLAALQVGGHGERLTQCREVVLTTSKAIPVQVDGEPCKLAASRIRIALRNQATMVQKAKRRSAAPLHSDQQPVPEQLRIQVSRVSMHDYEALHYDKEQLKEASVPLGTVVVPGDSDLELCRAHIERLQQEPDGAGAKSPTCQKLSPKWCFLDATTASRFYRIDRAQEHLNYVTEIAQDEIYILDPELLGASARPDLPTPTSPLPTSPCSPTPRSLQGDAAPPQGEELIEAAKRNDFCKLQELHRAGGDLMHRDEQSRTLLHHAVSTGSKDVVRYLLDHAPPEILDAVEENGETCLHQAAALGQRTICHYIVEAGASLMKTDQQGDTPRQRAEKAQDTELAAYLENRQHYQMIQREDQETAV

Row | IC50 (DGKzeta) | IC50 (DGKalpha) | SMILES | Emax (primary human T-cells) | EC50 (primary human T-cells)
1 | 503 nM | 431 nM | CC(C)(c1nnc(-c2cc3c(cc2F)S(=O)(=O)C[C@H](N)C(=O)N3Cc2ccc(OCC(F)(F)F)cc2)o1)S(C)(=O)=O [Example 24, (3R)-3-amino-8-fluoro-7-[5-(1-methyl-1-methylsulfonyl-ethyl)-1,3,4-oxadiazol-2-yl]-1,1-dioxo-5-[[4-(2,2,2-trifluoroethoxy)phenyl]methyl]-2,3-dihydro-1λ6,5-benzothiazepin-4-one] | 104% | 475 nM
2 | 370 nM | 447 nM | CC(C)(c1nnc(-c2cc3c(cc2F)S(=O)(=O)C[C@H](N)C(=O)N3Cc2ccc(OC(F)(F)C(F)F)cc2)o1)S(C)(=O)=O [Example 26, (3R)-3-amino-8-fluoro-7-[5-(1-methyl-1-methylsulfonyl-ethyl)-1,3,4-oxadiazol-2-yl]-1,1-dioxo-5-[[4-(1,1,2,2-tetrafluoroethoxy)phenyl]methyl]-2,3-dihydro-1λ6,5-benzothiazepin-4-one] | 122% | 573 nM
3 | 657 nM | 483 nM | CC(C)(c1nnc(-c2cc3c(cc2F)S(=O)(=O)C[C@H](N)C(=O)N3Cc2ccc(Oc3ccccc3)cc2)o1)S(C)(=O)=O [Example 27, (3R)-3-amino-8-fluoro-7-[5-(1-methyl-1-methylsulfonyl-ethyl)-1,3,4-oxadiazol-2-yl]-1,1-dioxo-5-[(4-phenoxyphenyl)methyl]-2,3-dihydro-1λ6,5-benzothiazepin-4-one] | 136% | 863 nM
4 | 251 nM | 534 nM | COc1ccc(-c2ccc(CN3C(=O)[C@@H](N)CS(=O)(=O)c4cc(F)c(-c5nnc(C(C)(C)S(C)(=O)=O)o5)cc43)cc2)cc1 [Example 29, (3R)-3-amino-8-fluoro-5-[[4-(4-methoxyphenyl)phenyl]methyl]-7-[5-(1-methyl-1-methylsulfonyl-ethyl)-1,3,4-oxadiazol-2-yl]-1,1-dioxo-2,3-dihydro-1λ6,5-benzothiazepin-4-one] | 108% | 55 nM

The remaining lines, values behind:

Row | SMILES | IC50 (DGKzeta) | IC50 (DGKalpha) | Emax (primary human T-cells) | EC50 (primary human T-cells)
5 | CC(C)(c1nnc(-c2ccc3c(c2)N(Cc2ccc(OC4CCCC4)cc2)C(=O)[C@@H](N)CS3(=O)=O)o1)S(C)(=O)=O [Example 16, (3R)-3-amino-5-[[4-(cyclopentoxy)phenyl]methyl]-7-[5-(1-methyl-1-methylsulfonyl-ethyl)-1,3,4-oxadiazol-2-yl]-1,1-dioxo-2,3-dihydro-1λ6,5-benzothiazepin-4-one] | 820 nM | 1510 nM | 81% | 5360 nM
6 | CC(C)(c1nnc(-c2ccc3c(c2)N(Cc2ccc(-c4noc(C(F)(F)F)n4)cc2)C(=O)[C@@H](N)CS3(=O)=O)o1)S(C)(=O)=O [Example 17, (3R)-3-amino-7-[5-(1-methyl-1-methylsulfonyl-ethyl)-1,3,4-oxadiazol-2-yl]-1,1-dioxo-5-[[4-[5-(trifluoromethyl)-1,2,4-oxadiazol-3-yl]phenyl]methyl]-2,3-dihydro-1λ6,5-benzothiazepin-4-one] | 3110 nM | 3350 nM | 112% | 1460 nM
7 | CCC(CC)Oc1ccc(CN2C(=O)[C@@H](N)CS(=O)(=O)c3ccc(-c4nnc(C(C)(C)S(C)(=O)=O)o4)cc32)cc1 [Example 19, (3R)-3-amino-5-[[4-(1-ethylpropoxy)phenyl]methyl]-7-[5-(1-methyl-1-methylsulfonyl-ethyl)-1,3,4-oxadiazol-2-yl]-1,1-dioxo-2,3-dihydro-1λ6,5-benzothiazepin-4-one] | 1520 nM | 1810 nM | 78% | 2760 nM
8 | CC(C)(c1nnc(-c2ccc3c(c2)N(Cc2ccc(-c4ccc(C#N)cc4)cc2)C(=O)[C@@H](N)CS3(=O)=O)o1)S(C)(=O)=O [Example 20, 4-[4-[[(3R)-3-amino-7-[5-(1-methyl-1-methylsulfonyl-ethyl)-1,3,4-oxadiazol-2-yl]-1,1,4-trioxo-2,3-dihydro-1λ6,5-benzothiazepin-5-yl]methyl]phenyl]benzonitrile] | 1450 nM | 1380 nM | 85% | 4010 nM
9 | COc1ccc(-c2ccc(CN3C(=O)[C@@H](N)CS(=O)(=O)c4ccc(-c5nnc(C(C)(C)S(C)(=O)=O)o5)cc43)cc2)cc1 [Example 21, (3R)-3-amino-5-[[4-(4-methoxyphenyl)phenyl]methyl]-7-[5-(1-methyl-1-methylsulfonyl-ethyl)-1,3,4-oxadiazol-2-yl]-1,1-dioxo-2,3-dihydro-1λ6,5-benzothiazepin-4-one] | 1080 nM | 1270 nM | 115% | 1130 nM
10 | COc1cccc(-c2ccc(CN3C(=O)[C@@H](N)CS(=O)(=O)c4ccc(-c5nnc(C(C)(C)S(C)(=O)=O)o5)cc43)cc2)c1 [Example 22, (3R)-3-amino-5-[[4-(3-methoxyphenyl)phenyl]methyl]-7-[5-(1-methyl-1-methylsulfonyl-ethyl)-1,3,4-oxadiazol-2-yl]-1,1-dioxo-2,3-dihydro-1λ6,5-benzothiazepin-4-one] | 1640 nM | > 62500 nM | 47% | > 10000 nM
11 | CC(C)(c1nnc(-c2ccc3c(c2)N(Cc2ccc(OCCC(F)(F)F)cc2)C(=O)[C@@H](N)CS3(=O)=O)o1)S(C)(=O)=O [Example 23, (3R)-3-amino-7-[5-(1-methyl-1-methylsulfonyl-ethyl)-1,3,4-oxadiazol-2-yl]-1,1-dioxo-5-[[4-(3,3,3-trifluoropropoxy)phenyl]methyl]-2,3-dihydro-1λ6,5-benzothiazepin-4-one] | 1260 nM | 3080 nM | 79% | 4540 nM
